Measurements as given in paper PMC7462985, “Inhibitors of BRAF dimers using an allosteric site” (Nature Communications, 2020).

What was measured:
[1] = molecular target: T1, AXL (Homo sapiens, UniProt P30530); assay: KINOMEscan scanEDGE binding; details: KinomeEDGE scan, compound at 1 μΜ
T1 construct: purchased Eurofins/DiscoverX KINOMEscan (scanEDGE panel)

[2] = test system: melanoma cells dependent on BRAF^V600E, p61BRAF^V600E, and RAS^MUT/BRAF^WT; assay: 3D culture colony formation; assay type: cell-based; details: 0.1-10 μM, 5th day of culture, compared to Vemurafenib
Experimental: 3D laminin-rich extracellular matrix cultures were prepared by trypsinization of melanoma cells from tissue culture plastic, seeding of single cells on top of a thin layer of Growth Factor-Reduced Matrigel (BD Biosciences, Franklin Lakes, NJ), and the addition of a medium containing 5% Matrigel. The cells were seeded at the density of 40,000 cells per cm^2. All 3D cell cultures were performed in DMEM supplemented with 5 μg/mL bovine insulin with Zinc (Gibco), 15 μg/mL bovine pituitary extract (Gibco), 0.5 ng/mL epidermal growth factor (Sigma-Aldrich, St. Louis, MO) and 2% fetal bovine serum. 3D cultures were maintained with media and/or drug-treatment changes every second day, and photographs were taken at the end of the 5th day. The size of single cell colonies was estimated with ImageJ (Version 1.51).

[3] = molecular target: BRAF^V600E monomers in A375 cells (Homo sapiens, UniProt P15056, V600E); assay: Cellular Thermal Shift Assay (CETSA); assay type: cell-based; details: 20 μΜ compound, versus DMSO
Experimental: The samples were incubated for 1 h at room temperature, rotating. After compound incubation, samples (50 μL each) were transferred in PCR tubes and incubated for 3 min in a temperature gradient produced with a C1000 thermal cycler (Bio-Rad). Cells were immediately lysed by repeating freeze-thaw cycles (3× times) in liquid nitrogen. […] Equal volumes of supernatants were run on 15-well 4–12% NuPAGE SDS-PAGE gels (Invitrogen), and analyzed by western blot. GAPDH, which is temperature insensitive under these conditions, served as loading control. Results were quantitated by densitometric analysis as described above.

[4] = molecular target: T2, FLT3 (Homo sapiens, UniProt P36888); assay: SelectScreen kinase activity assay; assay type: biochemical; set-up: purchased Invitrogen (SelectScreen service); details: PHI1 versus Ponatinib
T2 sequence (P36888 27-993): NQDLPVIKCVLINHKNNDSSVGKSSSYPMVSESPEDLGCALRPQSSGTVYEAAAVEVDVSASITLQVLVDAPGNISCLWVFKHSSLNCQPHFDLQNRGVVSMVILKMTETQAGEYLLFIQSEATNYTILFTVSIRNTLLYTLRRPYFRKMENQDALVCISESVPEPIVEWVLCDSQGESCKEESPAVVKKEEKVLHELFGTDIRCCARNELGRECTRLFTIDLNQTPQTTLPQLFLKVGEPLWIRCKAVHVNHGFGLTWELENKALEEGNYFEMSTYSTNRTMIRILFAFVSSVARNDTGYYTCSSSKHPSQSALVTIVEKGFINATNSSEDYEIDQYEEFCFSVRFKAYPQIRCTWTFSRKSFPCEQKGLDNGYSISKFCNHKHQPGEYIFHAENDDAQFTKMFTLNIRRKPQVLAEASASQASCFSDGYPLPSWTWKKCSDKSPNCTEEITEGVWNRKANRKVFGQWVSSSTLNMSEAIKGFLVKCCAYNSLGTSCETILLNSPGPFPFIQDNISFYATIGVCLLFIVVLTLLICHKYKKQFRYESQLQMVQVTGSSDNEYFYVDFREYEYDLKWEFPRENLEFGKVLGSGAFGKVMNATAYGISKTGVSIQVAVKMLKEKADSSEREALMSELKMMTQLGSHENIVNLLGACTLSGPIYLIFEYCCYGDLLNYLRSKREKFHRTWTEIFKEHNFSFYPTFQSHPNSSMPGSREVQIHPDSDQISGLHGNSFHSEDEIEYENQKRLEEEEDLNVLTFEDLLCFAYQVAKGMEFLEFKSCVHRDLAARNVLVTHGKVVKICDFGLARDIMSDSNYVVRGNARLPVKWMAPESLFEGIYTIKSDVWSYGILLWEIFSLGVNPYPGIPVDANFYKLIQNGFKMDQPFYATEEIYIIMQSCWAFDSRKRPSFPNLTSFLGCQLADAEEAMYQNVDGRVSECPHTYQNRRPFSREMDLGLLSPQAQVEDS
Experimental: BRAF kinase assays were performed using the Z’-LYTE™ enzymatic assay (Invitrogen, USA). […] Titrations were performed using a 1:3 dilution. Assays were performed using SelectScreen (Invitrogen).

Chain of BRAF^V600E monomers in A375 cells (P15056 whole entry V600E): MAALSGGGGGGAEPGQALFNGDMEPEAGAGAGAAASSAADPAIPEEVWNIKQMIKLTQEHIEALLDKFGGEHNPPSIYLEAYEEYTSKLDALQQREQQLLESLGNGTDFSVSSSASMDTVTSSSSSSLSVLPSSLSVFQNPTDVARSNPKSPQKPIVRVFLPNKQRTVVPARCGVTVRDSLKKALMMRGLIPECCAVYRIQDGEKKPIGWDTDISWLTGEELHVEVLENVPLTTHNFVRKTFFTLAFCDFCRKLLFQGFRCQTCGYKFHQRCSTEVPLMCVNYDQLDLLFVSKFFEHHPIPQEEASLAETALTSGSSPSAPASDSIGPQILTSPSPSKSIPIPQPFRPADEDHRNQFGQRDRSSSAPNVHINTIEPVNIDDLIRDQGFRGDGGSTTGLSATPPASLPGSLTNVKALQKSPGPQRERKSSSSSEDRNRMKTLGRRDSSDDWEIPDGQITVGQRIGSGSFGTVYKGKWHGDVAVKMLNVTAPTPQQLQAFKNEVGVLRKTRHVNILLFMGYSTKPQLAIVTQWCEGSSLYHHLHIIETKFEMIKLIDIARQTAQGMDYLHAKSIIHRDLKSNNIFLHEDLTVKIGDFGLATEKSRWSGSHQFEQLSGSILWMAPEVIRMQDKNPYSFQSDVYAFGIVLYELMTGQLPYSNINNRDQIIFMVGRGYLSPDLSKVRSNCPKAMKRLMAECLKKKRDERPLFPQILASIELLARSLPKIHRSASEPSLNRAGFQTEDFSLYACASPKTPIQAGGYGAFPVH
T1 sequence (P30530 26-894): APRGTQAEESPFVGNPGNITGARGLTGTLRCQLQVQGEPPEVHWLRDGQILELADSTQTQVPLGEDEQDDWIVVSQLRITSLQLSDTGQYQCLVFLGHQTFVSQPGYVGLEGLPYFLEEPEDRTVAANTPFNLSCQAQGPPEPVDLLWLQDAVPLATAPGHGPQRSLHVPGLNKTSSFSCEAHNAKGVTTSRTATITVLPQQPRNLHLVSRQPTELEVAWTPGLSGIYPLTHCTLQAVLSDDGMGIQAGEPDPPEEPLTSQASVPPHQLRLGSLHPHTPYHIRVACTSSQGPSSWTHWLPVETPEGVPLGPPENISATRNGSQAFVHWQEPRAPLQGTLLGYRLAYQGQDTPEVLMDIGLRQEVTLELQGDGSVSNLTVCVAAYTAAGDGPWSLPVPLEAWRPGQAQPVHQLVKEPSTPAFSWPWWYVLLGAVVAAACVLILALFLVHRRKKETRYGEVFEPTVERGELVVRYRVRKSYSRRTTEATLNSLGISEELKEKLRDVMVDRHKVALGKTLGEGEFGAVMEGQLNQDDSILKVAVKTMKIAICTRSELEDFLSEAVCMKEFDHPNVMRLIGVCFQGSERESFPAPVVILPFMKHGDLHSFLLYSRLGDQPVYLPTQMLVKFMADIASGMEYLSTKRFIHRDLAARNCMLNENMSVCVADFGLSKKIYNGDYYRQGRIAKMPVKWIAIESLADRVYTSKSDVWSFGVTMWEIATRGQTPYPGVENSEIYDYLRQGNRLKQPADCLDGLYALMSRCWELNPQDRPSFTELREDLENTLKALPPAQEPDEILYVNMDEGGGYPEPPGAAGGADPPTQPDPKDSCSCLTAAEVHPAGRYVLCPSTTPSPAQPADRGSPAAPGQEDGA

Which results are given for `Cc1ccc(C(=O)Nc2ccc(CN3CCN(C)CC3)c(C(F)(F)F)c2)cc1C#Cc1cnc2cccnn12` [Ponatinib, 3-[2-(imidazo[1,2-b]pyridazin-3-yl)ethynyl]-4-methyl-N-{4-[(4-methylpiperazin-1-yl)methyl]-3-(trifluoromethyl)phenyl}benzamide]?
% Ctrl AXL [1]: 14 % Ctrl; inhibition of colony formation in 3D culture (in words) [2]: increased efficacy to inhibit colony formation as compared to Vemurafenib

With `Cc1ccc(C(=O)Nc2ccc(CNCCN3CCOCC3)c(C(F)(F)F)c2)cc1C#Cc1cnc2cccnn12` [PHI1] as the compound, how does the “ΔTm (CETSA)” value [3] read?
The value was “+3.4 °C”.

And the “reduction of inhibitory activity on FLT3 compared to Ponatinib” value [4]?
Its value is “tenfold”.
